From patent publication US20070299084A1, “Indole Derivatives Useful for Treating Resistance to Antitumor Agents” (NIKEM RESE S.R.L., priority 2004, published 2007)
Where two headings read alike, the source gives them in different places. Marks after values point to notes of the source that are not given here. Each block holds one compound with its values, some of them ahead of it.

How the values were obtained:
[1] = tested on: HT29 cells (human colon carcinoma); assay: Antiproliferative activity, 72 h treatment, SRB assay, HT29; format: cell-based; settings: Homo sapiens, HT-29; 72 h. treatment; read-out: Antiproliferative activity (IC50 ± S.D., μM) HT-29
[2] = tested on: HT29/Mit cells (mitoxantrone-resistant human colon carcinoma, BCRP overexpression); assay: Antiproliferative activity, 72 h treatment, SRB assay, HT29/Mit; settings: Homo sapiens, HT-29, 72 h
Procedure: HT29 and HT29/Mit (line obtained by prolonged exposure to mitoxantrone, and characterised by overerexpression of BCRP, which confers cross resistance to topotecan, irinotecan and to its metabolite SN38): maintained in McCoy 5A medium+10% FCS.
The cells (HT29 and HT29/Mit:. 40,000 cells/ml, LoVo, LoVo/Dx and HCT116: 50,000 cells/ml) are seeded in 100 μl of the respective culture media in 96-well plates. 24 hours after seeding, an aliquot (10 μl) of drug at the various concentrations is added. In the samples in which the effect of the combination of two compounds is to be tested the inhibitor is added immediately before the cytotoxic. For each dose or combination of doses/drugs the effect of the treatment is determined in 4-8 replicates.
After 72 hours of treatment the antiproliferative effect is evaluated using the sulforhodamine B (SRB) assay: the cells are fixed by adding 25 μl of 50% TCA to each well and left for 1 hour at 4° C. After washing them with water and allowing them to dry, 100 μl of 0.4% SRB in 1% acetic acid are added and left for 30 minutes at room temperature. After 4 washes in 1% acetic acid, they are left to dry, then the dye fixed by the proteins is dissolved under basic conditions with 100 μl 10 mM cold Tris and the solution is read using a spectrophotometer at 550 nm.
Percentage cell growth is calculated as the optical density of treated samples compared to the optical density of controls (untreated cells).
The Combination Index (C.I.) was determined according to Kern's method, 1988 (who continued from Drewinko B, 1976) (Kern D. H., Cancer Res. 48, 117-121, 1988; Drewinko B., Cancer Biochem. Biophys. 1, 187-195, 1976) by means of the following formula: […], where SFa and SFb are the fractions of cells surviving to treatment with compound a and b, respectively; SFab is the fraction surviving to the combination of compounds a and b.

[3] = tested on: HepG2 cells (human hepatic carcinoma); assay: Antiproliferative activity, 48 h treatment, ATPlite luminescence assay, HepG2; format: cell-based; settings: Homo sapiens, HepG2, read-out: Antiproliferative activity (IC50 ± S.D., μM) HepG2
Procedure: HepG2: maintained in EMEM medium+10% FCS.
24 hours after seeding, an aliquot (10 μl) of the drug at the various concentrations is added (for each concentration there are 3 replicates). After 48 hours of treatment the antiproliferative effect is evaluated with a luminescence assay (Perkin Elmer Life Sciences ATPlite):
50 μl of a lysis solution are added to each well followed by an equal volume of a solution containing luciferase and D-luciferin. The ATP present in all the metabolically active cells brings about the transformation reaction of D-luciferin, catalysed by luciferase, to produce a luminescent signal as described in the following scheme: ATP+D-luciferin+O2→Oxyluciferin+AMP+PPi+CO2+Light
The luminescence produced (expressed in counts per second, CPS) is measured by means of a microplate scintillation analyzer (Perkin Elmer Life Sciences Top Count).
Percentage inhibition of luminescence in the treated cells compared to the control is calculated; concentration-response curves are then analysed using Grafit v.5.0.

[4] = Drug tolerability in H460 tumor-bearing mice (lethal toxicity); settings: topotecan 1 mg/kg, compound of example 2 30 mg/kg p.o., 8 weeks
Procedure: (§1) The effects of the compounds of the invention and/or topotecan on the growth of primary tumors and spontaneous lung metastasis were tested in mice inoculated s.c. in the right flank with H460 ascitic tumor cells (2×10^6/mouse). Each control or drug-treated group included 9-11 mice. The s.c. tumor growth was followed by biweekly measurements of tumor diameters with a Vernier caliper. Drug treatment was delivered orally, for 8 weeks, from day 1. Topotecan was delivered at the dose of 1 mg/kg and compounds of the invention were delivered at the dose of 30 mg/kg; in the combination group the compounds of the invention were delivered almost 1 hour after topotecan treatment. Control mice were solvent-treated orally in parallel with drug treatments.
(§2) Drug efficacy was assessed as mean percentage tumor weight inhibition in drug-treated versus control mice expressed as tumor weight inhibition % (TWI %)=100−(mean tumor weight treated/mean tumor weight control×100), evaluated during and after drug treatment. Drug tolerability was assessed in tumor-bearing mice as either lethal toxicity, i.e., any death in treated mice occurring before any control death, or percentage body weight loss (BWL %)=100−(body weight on day x/body weight on day 1×100), where x represents a day after or during the treatment period.

[5] = tested on: H460 spontaneous lung metastasis; assay: H460 xenograft, spontaneous lung metastasis (antimetastatic activity); format: in vivo, athymic Swiss nude mice; settings: topotecan 1 mg/kg, compound of example 2 30 mg/kg p.o.
Procedure: At day 63, tumor-bearing mice were sacrificed by cervical dislocation and their lungs were removed and weighed. Lung lobes were spliced between two glass slides and the metastatic nodules were macroscopically counted against a bright light (Corti C, J. Cancer Res. Clin. Oncol. 122, 154-60, 1996). […] Reading of metastasis was performed by two independent observers, unaware of the experimental group, with an interobserver reproducibility >95%. The metastatic nature of these areas was confirmed by histological analysis of digital images obtained by Image Analysis System software (Delta System, Rome, Italy).

H460 primary tumor = assay: H460 human non-small cell lung carcinoma xenograft, antitumor activity on the primary tumor; format: in vivo, athymic Swiss nude mice; settings: H460 s.c., p.o. for 8 weeks, topotecan 1 mg/kg, compound of example 2 30 mg/kg
Procedure: Female athymic Swiss nude mice (8-10 weeks old) (Charles River, Calco, Italy) were used for the experiments, as described above.
H460 cells were injected i.p. into nude mice, adapted to grow as ascitis and maintained in vivo by i.p. passages (5×10^6 cells/mouse in 0.5 ml PBS) (Pratesi G., Br. J. Cancer 63, 71-74, 1991). Briefly, cells were collected from the donor mice about 7 days after inoculum. After washing, cell number and viability were determined by trypan blue exclusion. Such procedure allowed to obtain a single cell suspension easily available for s.c or i.v. injection.
as §1, §2

[6] = tested on: HT29/Mit human colon carcinoma xenografts; assay: HT29/Mit human colon carcinoma xenografts, antitumor activity; format: in vivo, athymic Swiss nude mice; settings: HT29/Mit xenograft, p.o.; topotecan 15 mg/Kg every 4 days for 3 administrations; compound of example 2 30 mg/kg; alone or combined
Procedure: Female athymic Swiss nude mice (8-10 weeks old) (Charles River, Calco, Italy) were used for the experiments. The animals were maintained at constant temperature and humidity, and were allowed to eat and drink freely. The experimental protocol was approved by the Ethics Committee for Animal Experimentation of the Istituto Nazionale Tumori of Milan.
The antitumour effectiveness of the compounds of the invention under discussion was tested on athymic mouse models implanted with HT29 and/or HT29/Mit tumour cells: this latter variety is highly resistant to topotecan treatment. The tumour cells were implanted in vivo via subcutaneous injection of 10^7 cells taken from in vitro cultures. Randomized groups of five mice with bilateral subcutaneous tumours were used for the experiment.
Topotecan or other known antitumour agents (dissolved in distilled water or an appropriate solvent) and the compounds of the invention (dissolved in Cremophor EL:ethanol:saline solution in the proportions 5:5:90, or in an appropriate solvent) were administered orally from the third day, alone or in combination, in agreement with a treatment scheme selected in an appropriate manner depending on the type of compound to be studied.
The weight (or volume) of the tumour in treated mice compared to controls is represented graphically on the y-axis against time (x-axis).

[7] = read-out: Antiproliferative activity (IC50 ± S.D., μM) HT-29/Mit

- IC50 [1]: 4.7 µM
Compound: CCOc1cc(C(=O)NC2CCNCC2)ccc1-c1cc2cc(Cl)c(Cl)cc2[nH]1 [Example 4]
- IC50 [2, 7]: 3.6 µM

- IC50 [1]: 3.8 µM
Compound: CCOc1cc(C(=O)NC2CCN(C)CC2)ccc1-c1cc2cc(Cl)c(Cl)cc2[nH]1 [Example 5]
- IC50 [2, 7]: 2.3 µM

- IC50 [3]: 0.92 ± 0.01 µM
- IC50 [1]: 4.7 µM
Compound: COc1cc(C(=O)N(C)C2CC(C)(C)NC(C)(C)C2)ccc1-c1cc2cc(Cl)c(Cl)cc2[nH]1 [Example 6]
- IC50 [2, 7]: 3.3 µM

Compound: CC[C@@]1(O)C(=O)OCc2c1cc1n(c2=O)Cc2cc3c(CN(C)C)c(O)ccc3nc2-1 [Topotecan, reference compound]
- Tox/Tot (any death in treated mice occurring before any control mice) [4]: 0/10
- IC50 [1]: 0.07 ± 0.01 µM
- Lung No. Metastasis (range) ([5]; day 63): 11 (4-23)
- Lung Weight (mg) (mean ± S.D.) ([5]; day 63): 169 ± 16 mg
- Lung No. Metastasis (range) ([5]; day 63, listed as topotecan): reduced
- Lung metastasis Inhibition % ([5]; inhibition of number of metastasis vs controls): 58%
- LCK (Log10 Cell Kill) (H460 primary tumor): 0.5
- Max TWI (day 56) (Maximal Tumor weight inhibition achieved) (H460 primary tumor): 57* %
- Max TWI (day 56) (Maximal Tumor weight inhibition achieved) (H460 primary tumor; listed as topotecan): 57%
- IC50 ([2]; read-out: IC50 for topotecan alone (FIG. 1 co-treatment experiment)): > 20 µM
- Inhibition of tumour growth [6]: 30-40%
